Experimental data reported in BindingDB's records for doi:10.1021/acs.jmedchem.9b01226 (Purdue University, 2020).

Experiments:
[1] = biological target: T1, Proteasome subunit beta type-8 (Homo sapiens, UniProt P28062); assay: Inhibition of immunoproteasome subunit LMP7 in human DOX40 cells assessed as reduction in cell viability incubated for 48 hrs by MTT assay
T1 sequence (P28062 whole entry): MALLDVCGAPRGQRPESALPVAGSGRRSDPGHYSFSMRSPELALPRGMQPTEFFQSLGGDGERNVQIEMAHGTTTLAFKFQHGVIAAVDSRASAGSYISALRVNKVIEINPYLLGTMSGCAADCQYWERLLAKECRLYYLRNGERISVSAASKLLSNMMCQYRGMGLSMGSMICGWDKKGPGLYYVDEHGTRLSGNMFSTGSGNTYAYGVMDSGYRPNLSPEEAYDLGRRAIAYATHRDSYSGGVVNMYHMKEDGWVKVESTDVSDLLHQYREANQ

[2] = biological target: T1, Proteasome subunit beta type-8; assay: Inhibition of immunoproteasome subunit LMP7 in human MM.1S cells assessed as reduction in cell viability incubated for 48 hrs by MTT assay
[3] = biological target: T1, Proteasome subunit beta type-8; assay: Inhibition of immunoproteasome subunit LMP7 in human INA60 cells assessed as reduction in cell viability incubated for 48 hrs by MTT assay
[4] = biological target: T1, Proteasome subunit beta type-8; assay: Inhibition of immunoproteasome subunit LMP7 in human KMS12PE cells assessed as reduction in cell viability incubated for 48 hrs by MTT assay
[5] = biological target: T1, Proteasome subunit beta type-8; assay: Inhibition of immunoproteasome subunit LMP7 in human LR5 cells assessed as reduction in cell viability incubated for 48 hrs by MTT assay
[6] = biological target: T1, Proteasome subunit beta type-8; assay: Inhibition of immunoproteasome subunit LMP7 in human OPM1 cells assessed as reduction in cell viability incubated for 48 hrs by MTT assay
[7] = biological target: T1, Proteasome subunit beta type-8; assay: Inhibition of immunoproteasome subunit LMP7 in human MM.1R cells assessed as reduction in cell viability incubated for 48 hrs by MTT assay
[8] = biological target: T1, Proteasome subunit beta type-8; assay: Inhibition of immunoproteasome subunit LMP7 in human RPMI8226 cells assessed as reduction in cell viability incubated for 48 hrs by MTT assay
[9] = biological target: T1, Proteasome subunit beta type-8; assay: Inhibition of immunoproteasome subunit […] in human OPM1 cells assessed as reduction in cell viability incubated for 48 hrs by MTT assay

Measured: IC50

CC1=C(C(=O)N[C@H](C)C(=O)N[C@@H](Cc2c[nH]c3ccccc23)C(=O)N[C@@H](Cc2ccccc2)C(=O)[C@@]2(C)CO2)Cc2ccccc21
3 µM: all assays above
